Data: PubChem BioAssay (NCI)
Where “and” joins values, the source holds several entries; their conditions need not be identical. Equal entries are not always repeated.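 How tested: cells in 96-well plates exposed to compound for 48 hours at five concentrations. Here, GI50 denotes the concentration required for 50% inhibition of growth. At the TGI there is no net growth.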

Key:
Experiment in all cases: inhibition of tumour cell growth, NCI panel, 48 h
[1] = test system: HS 578T breast
[2] = test system: HT29 colon
[3] = test system: MALME-3M melanoma
[4] = test system: RPMI-8226 leukemia
[5] = test system: RXF 393 renal
[6] = test system: SF-295 CNS
[7] = test system: SNB-19 CNS
[8] = test system: U251 CNS
[9] = test system: UO-31 renal
[10] = test system: A498 renal

SMILES | TGI [1] | TGI [2] | TGI [3] | TGI [4] | TGI [5] | TGI [6] | TGI [7] | TGI [8] | TGI [9] | GI50 [1] | GI50 [2] | GI50 [4] | GI50 [5] | GI50 [6] | GI50 [7] | GI50 [8] | GI50 [9] | GI50 [10] | TGI [10] | GI50 [3]
COc1ccc2c(c1)C(=O)CC(N)C2 (stereo not given) | > 100 µM | > 100 µM | > 100 µM | > 100 µM | > 100 µM | > 100 µM | > 100 µM | > 100 µM | > 100 µM |  |  |  |  |  |  |  |  |  |  | 
Cc1c(CCCl)c(=O)n2c([nH]c3ccccc32)c1C#N | 4.89 µM | 3.49 µM | 2.02 µM | 7.45 µM | 3.8 µM | 3.48 µM |  | 3.45 µM | 3.51 µM |  |  |  |  |  |  |  |  |  |  | 
S=C(Nc1ccc(-c2nc3ccccc3[nH]2)cc1)NC1CCCCC1 |  | > 100 µM | 51.9 µM | 90.2 µM | 74 µM | 30.3 µM |  | 45.2 µM | 71.6 µM | 26.1 µM | 34.4 µM | 16.6 µM | 15.5 µM | 7.06 µM | 46.6 µM | 19.7 µM | 21.3 µM |  |  | 
CC(=O)CC1CCC(=O)CCC(=O)OC(CC(C)=O)CCC(=O)CCC(=O)O1 (stereo not given) | > 100 µM | > 100 µM | > 100 µM | > 100 µM | > 100 µM | > 100 µM | > 100 µM | > 100 µM |  |  |  |  |  |  |  |  |  |  |  | 
COc1ccc2c(c1)sc1nc(-c3ccccc3)c(-c3ccsc3)n12 | > 100 µM | 10.5 µM | > 100 µM |  |  | > 100 µM | > 100 µM | > 100 µM | > 100 µM | > 100 µM | 2.95 µM |  |  | 3.06 µM | 6.9 µM | 3.72 µM | 6.03 µM | 6.26 µM | > 100 µM | > 100 µM
CCN(CC)CCNc1c(OC)cc(C)c2sc3ccccc3c(=O)c12 | 24.8 µM | 6.42 µM | 6.08 µM | 3.05 µM | 34 µM | 14.4 µM | 26.6 µM | 16 µM | 20.3 µM |  |  |  |  |  |  |  |  |  |  | 
CC(=O)OCC1OC(n2c(-c3ccccc3)cc(-c3ccco3)c(C#N)c2=O)C(OC(C)=O)C(OC(C)=O)C1OC(C)=O (stereo not given) |  | > 100 µM | > 100 µM | > 100 µM | > 100 µM | > 100 µM | > 100 µM | > 100 µM | > 100 µM and 67.6 µM |  |  |  |  |  | 90.5 µM and 36.3 µM | 98 µM and 17.8 µM | > 100 µM and 21.2 µM |  | > 100 µM | 23 µM and 85.9 µM
CCOC(=O)C(C)(C)Oc1ccc2c(=O)cc(-c3ccc(Cl)cc3)oc2c1 |  | > 100 µM | > 100 µM | > 100 µM | > 100 µM | > 100 µM | > 100 µM | > 100 µM | > 100 µM |  |  |  |  |  |  |  |  |  | > 100 µM | 
Oc1ccc(Br)cc1Sc1cc(Br)ccc1O | 25.8 µM | 34.1 µM |  | 15.6 µM |  | 33.5 µM | 25.2 µM | 18.4 µM | 19.6 µM | 4.28 µM | 19 µM | 3.18 µM |  | 14.4 µM | 4.88 µM | 4.42 µM | 5 µM | 15.5 µM | 31.1 µM | 
O=C(Nc1ccc(Cl)cc1)Nc1ccc(Cl)c(Cl)c1 | 85 µM | > 100 µM |  | 4.73 µM |  | > 100 µM | > 100 µM | > 100 µM | 10.1 µM | 4.58 µM | 3.76 µM | 1.61 µM |  | 4.02 µM | 4.01 µM | 3.52 µM | 2.32 µM | 3.05 µM | 7.94 µM | 
Cc1cc2nc3c(C(OC4OC(CO)C(O)C(O)C4O)C(O)CO)nn(-c4ccccc4)c3nc2cc1C (stereo not given) |  | > 100 µM | > 100 µM | > 100 µM | > 100 µM | > 100 µM | > 100 µM | > 100 µM | > 100 µM |  |  |  |  |  |  |  |  |  | > 100 µM | 
Cc1nn(C(=O)c2ccccc2O)c2c1C(c1ccccc1)SC(N)=N2 (stereo not given) | > 10 µM | > 10 µM | > 10 µM | 6.05 µM | > 10 µM | > 10 µM | > 10 µM | > 10 µM |  |  |  |  |  |  |  |  |  |  |  | 
CN(C)c1ccc(/C=C2\Oc3cc(O)ccc3C2=O)cc1 | > 100 µM |  |  | > 100 µM | > 100 µM | > 100 µM | > 100 µM | > 100 µM | > 100 µM |  |  |  |  |  |  |  |  |  |  | 
O=C(C(O)c1cn(Cc2ccccc2)c2ccccc12)N1CCCCC1 (stereo not given) |  | > 100 µM | > 100 µM | > 100 µM | > 10 µM | > 100 µM | > 100 µM | > 10 µM | > 100 µM |  |  |  |  |  |  |  |  |  | > 100 µM | 
NC(=O)c1c[se]c(C2OC(CO)C(O)C2O)n1 (stereo not given) | > 100 µM | > 100 µM | > 100 µM | > 100 µM |  | > 49.8 µM | > 100 µM | > 100 µM | > 100 µM |  |  |  |  |  |  |  |  |  | > 100 µM | 
COC(=O)c1c(-c2ccccc2)cc2c3cc(-c4ccccc4)c(C(=O)OC)n3c3ccccc3n12 |  | > 100 µM | > 100 µM | > 100 µM | > 94.7 µM | > 100 µM | > 100 µM | > 100 µM | > 100 µM |  |  |  |  |  |  |  |  |  | > 100 µM | 
